According to patent US8952024B2, “Herbicidal pyrimidone derivatives” (E I du Pont de Nemours and Company, priority 2009, dated 2015):

Columns and labels:
Assay in all cases: Test C plant response
Assay type in all cases: in vivo
[1] = system: deadnettle (henbit deadnettle, Lamium amplexicaule); details: Preemergence, scale 0 to 100
[2] = system: bluegrass (annual bluegrass, Poa annua); details: Postemergence, scale 0 to 100
Summary of the method: (§1)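 Formulation: non-phytotoxic solvent + surfactant. Controlled growth environment, 14 d. Visual rating vs controls, 0 = no effect, 100 = complete control; dash = no result.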

[3] = system: spring barley (Hordeum vulgare); details: Postemergence, scale 0 to 100
Summary of the method: as §1

[4] = system: field violet (Viola arvensis); details: Postemergence, scale 0 to 100
Summary of the method: as §1

[5] = system: spring wheat (Triticum aestivum); details: Postemergence, scale 0 to 100
Summary of the method: as §1

[6] = system: buckwheat (wild buckwheat, Polygonum convolvulus); details: Postemergence, scale 0 to 100
Summary of the method: as §1

[7] = system: lambsquarters (Chenopodium album); details: Postemergence, scale 0 to 100
Summary of the method: as §1

[8] = system: winter wheat (Triticum aestivum); details: Postemergence, scale 0 to 100
Summary of the method: as §1

wild oat (Avena fatua) = details: Postemergence, scale 0 to 100
Summary of the method: as §1

[9] = system: Russian thistle (Salsola iberica); details: Postemergence, scale 0 to 100
Summary of the method: as §1

kochia (Kochia scoparia) = details: Postemergence, scale 0 to 100
Summary of the method: as §1

[10] = system: pigweed (Amaranthus retroflexus); details: Postemergence, scale 0 to 100
Summary of the method: as §1

[11] = system: wild mustard (Sinapis arvensis); details: Postemergence, scale 0 to 100
Summary of the method: as §1

[12] = system: Italian ryegrass (Lolium multiflorum); details: Postemergence, scale 0 to 100
Summary of the method: as §1

[13] = system: green foxtail (Setaria viridis); details: Postemergence, scale 0 to 100
Summary of the method: as §1

[14] = system: oilseed rape (Brassica napus); details: Postemergence, scale 0 to 100
Summary of the method: as §1

[15] = system: galium (catchweed bedstraw, Galium aparine); details: Postemergence, scale 0 to 100
Summary of the method: as §1

[16] = system: wild radish (Raphanus raphanistrum); details: Postemergence, scale 0 to 100
Summary of the method: as §1

[17] = system: spring barley (Hordeum vulgare); details: Preemergence, scale 0 to 100
[18] = system: oilseed rape (Brassica napus); details: Preemergence, scale 0 to 100
[19] = system: galium (catchweed bedstraw, Galium aparine); details: Preemergence, scale 0 to 100
[20] = system: blackgrass (Alopecurus myosuroides); details: Preemergence, scale 0 to 100
[21] = system: green foxtail (Setaria viridis); details: Preemergence, scale 0 to 100
[22] = system: buckwheat (wild buckwheat, Polygonum convolvulus); details: Preemergence, scale 0 to 100

## O=C1CCCC(O)=C1C(=O)c1cnc(-c2ccccc2)n(-c2ccccc2)c1=O [Compound 2, 5-[(2-hydroxy-6-oxo-1-cyclohexen-1-yl)carbonyl]-2,3-diphenyl-4(3H)-pyrimidinone]
[1]; 62 g ai/ha
  Plant response rating: Deadnettle: 95
[1]; 125 g ai/ha
  Plant response rating: Deadnettle: 98
[1]; 16 g ai/ha
  Plant response rating: Deadnettle: 0
[1]; 31 g ai/ha
  Plant response rating: Deadnettle: 75
[2]; 16 g ai/ha
  Plant response rating: Bluegrass: 0
[2]; 31 g ai/ha
  Plant response rating: Bluegrass: 25
[2]; 62 g ai/ha
  Plant response rating: Bluegrass: 25
[2]; 125 g ai/ha
  Plant response rating: Bluegrass: 65
[3]; 16 g ai/ha
  Plant response rating: Barley, Spring: 0
[3]; 31 g ai/ha
  Plant response rating: Barley, Spring: 0
[3]; 62 g ai/ha
  Plant response rating: Barley, Spring: 0
[3]; 125 g ai/ha
  Plant response rating: Barley, Spring: 0
[4]; 16 g ai/ha
  Plant response rating: Field Violet: 0
[4]; 31 g ai/ha
  Plant response rating: Field Violet: 40
[4]; 62 g ai/ha
  Plant response rating: Field Violet: 40
[4]; 125 g ai/ha
  Plant response rating: Field Violet: 50
[5]; 16 g ai/ha
  Plant response rating: Wheat, Spring: 0
[5]; 31 g ai/ha
  Plant response rating: Wheat, Spring: 0
[5]; 62 g ai/ha
  Plant response rating: Wheat, Spring: 0
[5]; 125 g ai/ha
  Plant response rating: Wheat, Spring: 0
[6]; 16 g ai/ha
  Plant response rating: Buckwheat, Wild: 15
[6]; 31 g ai/ha
  Plant response rating: Buckwheat, Wild: 20
[6]; 62 g ai/ha
  Plant response rating: Buckwheat, Wild: 40
[6]; 125 g ai/ha
  Plant response rating: Buckwheat, Wild: 70
[7]; 16 g ai/ha
  Plant response rating: Lambsquarters: 70
[7]; 31 g ai/ha
  Plant response rating: Lambsquarters: 75
[7]; 62 g ai/ha
  Plant response rating: Lambsquarters: 80
[7]; 125 g ai/ha
  Plant response rating: Lambsquarters: 98
[8]; 16 g ai/ha
  Plant response rating: Wheat, Winter: 0
[8]; 31 g ai/ha
  Plant response rating: Wheat, Winter: 0
[8]; 62 g ai/ha
  Plant response rating: Wheat, Winter: 0
[8]; 125 g ai/ha
  Plant response rating: Wheat, Winter: 30
Wild oat (Avena fatua); 16 g ai/ha
  Plant response rating: Oat, Wild: 0
Wild oat (Avena fatua); 31 g ai/ha
  Plant response rating: Oat, Wild: 15
Wild oat (Avena fatua); 62 g ai/ha
  Plant response rating: Oat, Wild: 25
Wild oat (Avena fatua); 125 g ai/ha
  Plant response rating: Oat, Wild: 25
[9]; 16 g ai/ha
  Plant response rating: Russian Thistle: 35
[9]; 31 g ai/ha
  Plant response rating: Russian Thistle: 60
[9]; 62 g ai/ha
  Plant response rating: Russian Thistle: 70
[9]; 125 g ai/ha
  Plant response rating: Russian Thistle: 95
Kochia (Kochia scoparia); 16 g ai/ha
  Plant response rating: Kochia: 65
Kochia (Kochia scoparia); 31 g ai/ha
  Plant response rating: Kochia: 70
Kochia (Kochia scoparia); 62 g ai/ha
  Plant response rating: Kochia: 75
Kochia (Kochia scoparia); 125 g ai/ha
  Plant response rating: Kochia: 98
[10]; 16 g ai/ha
  Plant response rating: Pigweed: 35
[10]; 31 g ai/ha
  Plant response rating: Pigweed: 40
[10]; 62 g ai/ha
  Plant response rating: Pigweed: 75
[10]; 125 g ai/ha
  Plant response rating: Pigweed: 90
[11]; 16 g ai/ha
  Plant response rating: Mustard, Wild: 98
[11]; 31 g ai/ha
  Plant response rating: Mustard, Wild: 98
[11]; 62 g ai/ha
  Plant response rating: Mustard, Wild: 98
[12]; 16 g ai/ha
  Plant response rating: Ryegrass, Italian: 0
[12]; 31 g ai/ha
  Plant response rating: Ryegrass, Italian: 0
[12]; 62 g ai/ha
  Plant response rating: Ryegrass, Italian: 15
[12]; 125 g ai/ha
  Plant response rating: Ryegrass, Italian: 30
[13]; 16 g ai/ha
  Plant response rating: Foxtail, Green: 65
[13]; 31 g ai/ha
  Plant response rating: Foxtail, Green: 75
[13]; 62 g ai/ha
  Plant response rating: Foxtail, Green: 95
[13]; 125 g ai/ha
  Plant response rating: Foxtail, Green: 95
[14]; 16 g ai/ha
  Plant response rating: Oilseed Rape: 60
[14]; 31 g ai/ha
  Plant response rating: Oilseed Rape: 60
[14]; 62 g ai/ha
  Plant response rating: Oilseed Rape: 70
[14]; 125 g ai/ha
  Plant response rating: Oilseed Rape: 90
[15]; 16 g ai/ha
  Plant response rating: Galium: 5
[15]; 31 g ai/ha
  Plant response rating: Galium: 30
[15]; 62 g ai/ha
  Plant response rating: Galium: 50
[15]; 125 g ai/ha
  Plant response rating: Galium: 70
[16]; 16 g ai/ha
  Plant response rating: Radish, Wild: 65
[16]; 31 g ai/ha
  Plant response rating: Radish, Wild: 80
[16]; 62 g ai/ha
  Plant response rating: Radish, Wild: 95
[16]; 125 g ai/ha
  Plant response rating: Radish, Wild: 95
[17]; 62 g ai/ha
  Plant response rating: Barley, Spring: 0
[17]; 125 g ai/ha
  Plant response rating: Barley, Spring: 0
[17]; 16 g ai/ha
  Plant response rating: Barley, Spring: 0
[17]; 31 g ai/ha
  Plant response rating: Barley, Spring: 0
[18]; 62 g ai/ha
  Plant response rating: Oilseed Rape: 35
[18]; 125 g ai/ha
  Plant response rating: Oilseed Rape: 65
[18]; 16 g ai/ha
  Plant response rating: Oilseed Rape: 0
[18]; 31 g ai/ha
  Plant response rating: Oilseed Rape: 20
[19]; 62 g ai/ha
  Plant response rating: Galium: 0
[19]; 125 g ai/ha
  Plant response rating: Galium: 50
[20]; 62 g ai/ha
  Plant response rating: Blackgrass: 0
[20]; 125 g ai/ha
  Plant response rating: Blackgrass: 0
[20]; 16 g ai/ha
  Plant response rating: Blackgrass: 0
[20]; 31 g ai/ha
  Plant response rating: Blackgrass: 0
[21]; 62 g ai/ha
  Plant response rating: Foxtail, Green: 0
[21]; 125 g ai/ha
  Plant response rating: Foxtail, Green: 0
[21]; 16 g ai/ha
  Plant response rating: Foxtail, Green: 0
[21]; 31 g ai/ha
  Plant response rating: Foxtail, Green: 0
[22]; 62 g ai/ha
  Plant response rating: Buckwheat, Wild: 0
[22]; 125 g ai/ha
  Plant response rating: Buckwheat, Wild: 0
[22]; 16 g ai/ha
  Plant response rating: Buckwheat, Wild: 0
[22]; 31 g ai/ha
  Plant response rating: Buckwheat, Wild: 0
